According to US7507748B2, “Substituted aryl-amine derivatives and methods of use” (Amgen Inc., priority 2004, dated 2009):

Tested on: Human Umbilical Vein Endothelial cells
Experiment: VEGF-stimulated HUVEC proliferation assay
Format: cell-based
Conditions: 72 h, CyQuant, read-out: inhibited VEGF-stimulated HUVEC proliferation at a level
Protocol: Human Umbilical Vein Endothelial cells are purchased from Clonetics, Inc., as cryopreserved cells harvested from a pool of donors. These cells, at passage 1, are thawed and expanded in EBM-2 complete medium, until passage 2 or 3. The cells are trypsinized, washed in DMEM+10% FBS+antibiotics, and spun at 1000 rpm for 10 min. Prior to centrifugation of the cells, a small amount is collected for a cell count. After centrifugation, the medium is discarded, and the cells are resuspended in the appropriate volume of DMEM+10% FBS+antibiotics to achieve a concentration of 3×10^5 cells/mL. Another cell count is performed to confirm the cell concentration. The cells are diluted to 3×10^4 cells/mL in DMEM+10% FBS+antibiotics, and 100 μL of cells are added to a 96-well plate. The cells are incubated at 37° C. for 22 h.
Prior to the completion of the incubation period, compound dilutions are prepared. Five-point, five-fold serial dilutions are prepared in DMSO, at concentrations 400-fold greater than the final concentrations desired. 2.5 μL of each compound dilution are diluted further in a total of 1 mL DMEM+10% FBS+antibiotics (400× dilution). Medium containing 0.25% DMSO is also prepared for the 0 μM compound sample. At the 22-hour timepoint, the medium is removed from the cells, and 100 μL of each compound dilution is added. The cells are incubated at 37° C. for 2-3 h.
During the compound pre-incubation period, the growth factors are diluted to the appropriate concentrations. Solutions of DMEM+10% FBS+antibiotics, containing either VEGF or bFGF at the following concentrations: 50, 10, 2, 0.4, 0.08, and 0 ng/mL are prepared. For the compound-treated cells, solutions of VEGF at 550 ng/mL or bFGF at 220 ng/mL for 50 ng/mL or 20 ng/mL final concentrations, respectively, are prepared since 10 μL of each will be added to the cells (110 μL final volume). At the appropriate time after adding the compounds, the growth factors are added. VEGF is added to one set of plates, while bFGF is added to another set of plates. For the growth factor control curves, the media on wells B4-G6 of plates 1 and 2 are replaced with media containing VEGF or bFGF at the varying concentrations (50-0 ng/mL). The cells are incubated at 37° C. for an additional 72 h.
At the completion of the 72 h incubation period, the medium is removed, and the cells are washed twice with PBS. After the second wash with PBS, the plates are tapped gently to remove excess PBS, and the cells are placed at −70° C. for at least 30 min. The cells are thawed and analyzed using the CyQuant fluorescent dye (Molecular Probes C-7026), following the manufacturer's recommendations. The plates are read on a Victor/Wallac 1420 workstation at 485 nm/530 nm (excitation/emission). Raw data are collected and analyzed using a 4-parameter fit equation in XLFit. IC50 values are then determined.

SMILES	IC50 [nM]
Cc1ccc(NC(=O)c2cccnc2Nc2ccc3ccncc3c2)cc1Cl [Example 60, N-(3-chloro-4-methylphenyl)-2-(isoquinolin-7-ylamino)nicotinamide]	< 1000
CC1(C)CN(C(=O)[C@H]2CCCO2)Cc2cc(NC(=O)c3cccnc3Nc3ccc4ccncc4c3)ccc21 (stereo in doubt) [Example 74, N-[4,4-Dimethyl-2-(tetrahydro-furan-2-carbonyl)-1,2,3,4-tetrahydro-isoquinolin-7-yl]-2-(isoquinolin-7-ylamino)-nicotinamide]	< 1000
CC(C)(C)c1ccc(NC(=O)c2ccccc2Nc2ccc3ccncc3c2)cc1 [Example 27, N-(4-tert-Butyl-phenyl)-2-(isoquinolin-7-ylamino)-benzamide]	< 1000
CC(=O)N1CC(C)(C)c2ccc(NC(=O)c3cccnc3Nc3ccc4ccncc4c3)cc21 [Example 31, N-(1-Acetyl-3,3-dimethyl-2,3-dihydro-1H-indol-6-yl)-2-(isoquinolin-7-ylamino)-nicotinamide]	< 1000
CCC(C)(C)c1ccc(NC(=O)c2cccnc2Nc2ccc3ccncc3c2)cc1 [Example 46, N-(4-(1,1-Dimethyl-propyl)-phenyl)-2-(isoquinolin-7-ylamino)-nicotinamide]	< 1000
CC1(C)CNCc2cc(NC(=O)c3cccnc3Nc3cccc4cnccc34)ccc21 [Example 69, N-(4,4-Dimethyl-1,2,3,4-tetrahydro-isoquinolin-7-yl)-2-(isoquinolin-5-ylamino)-nicotinamide]	< 1000
CC1(C)CN(C(=O)CN)Cc2cc(NC(=O)c3cccnc3Nc3ccc4ccncc4c3)ccc21 [Example 75, N-[2-(2-Amino-acetyl)-4,4-dimethyl-1,2,3,4-tetrahydro-isoquinolin-7-yl]-2-(isoquinolin-7-ylamino)-nicotinamide]	< 1000
COC(c1ccc(NC(=O)c2cccnc2Nc2ccc3ccncc3c2)cc1)(C(F)(F)F)C(F)(F)F [Example 10, 2-(Isoquinolin-7-ylamino)-N-[4-(2,2,2-trifluoro-1-methoxy-1-trifluoromethyl-ethyl)-phenyl]-nicotinamide]	< 1000
CC1(C)CNc2cc(NC(=O)c3cccnc3Nc3ccc4ccncc4c3)ccc21 [Example 32, N-(3,3-Dimethyl-2,3-dihydro-1H-indol-6-yl)-2-(isoquinolin-7-ylamino)-nicotinamide]	< 1000
CC1(C)CC(=O)Nc2cc(NC(=O)c3cccnc3Nc3ccc4[nH]nnc4c3)ccc21 [Example 24, 2-(1H-1,2,3-benzotriazol-5-ylamino)-N-(4,4-dimethyl-2-oxo-1,2,3,4-tetrahydroquinolin-7-yl)nicotinamide]	< 1000
O=C(Nc1ccc(C(O)(C(F)(F)F)C(F)(F)F)cc1)c1cccnc1Nc1ccc2ccncc2c1 [Example 43, 2-(Isoquinolin-7-ylamino)-N-[4-(2,2,2-trifluoro-1-hydroxy-1-trifluoromethyl-ethyl)-phenyl]-nicotinamide]	< 1000
Cc1cc(NC(=O)c2cccnc2Nc2ccc3ccncc3c2)ccc1C(F)(F)C(F)(F)F [Example 48, 2-(Isoquinolin-7-ylamino)-N-(3-methyl-4-pentafluoroethyl-phenyl)-nicotinamide]	< 1000
CC1(C)CNCc2cc(NC(=O)c3cccnc3Nc3ccc4ncncc4c3)ccc21 [Example 51, N-(4,4-Dimethyl-1,2,3,4-tetrahydro-isoquinolin-7-yl)-2-(quinazolin-6-ylamino)-nicotinamide]	< 1000
CC(C)(C)c1ccc(NC(=O)c2cccc(F)c2Nc2ccc3ccncc3c2)cc1 [Example 29, N-(4-tert-Butyl-phenyl)-3-fluoro-2-(isoquinolin-7-ylamino)-benzamide]	< 1000
Cc1cc(NC(=O)c2cccnc2Nc2ccc3ccncc3c2)ccc1C(C)C [Example 49, N-(4-Isopropyl-3-methyl-phenyl)-2-(isoquinolin-7-ylamino)-nicotinamide]	< 1000
CC(C)(C)c1ccc(NC(=O)c2cccnc2Nc2ccc3nc(N)nc(N)c3c2)cc1 [Example 66, 2-(2,4-diaminoquinazolin-6-ylamino)-N-(4-tert-butylphenyl)nicotinamide]	< 1000
CC1(C)CCNc2cc(NC(=O)c3ccccc3Nc3ccc4ccncc4c3)ccc21 [Example 28, N-(4,4-Dimethyl-1,2,3,4-tetrahydro-quinolin-7-yl)-2-(isoquinolin-7-ylamino)-benzamide]	< 1000
O=C(Nc1ccc(C(F)(F)F)cc1)c1cccnc1Nc1ccc2ccncc2c1 [Example 12, 2-(Isoquinolin-7-ylamino)-N-(4-trifluoromethyl-phenyl)-nicotinamide]	< 1000
CC1(C)CC(=O)Nc2nc(NC(=O)c3cccnc3Nc3ccc4ccncc4c3)ccc21 [Example 58, N-(5,5-dimethyl-7-oxo-5,6,7,8-tetrahydro-1,8-naphthyridin-2-yl)-2-(isoquinolin-7-ylamino)nicotinamide]	< 1000
COc1cc(NC(=O)c2cccnc2Nc2ccc3ccncc3c2)cc(C(F)(F)F)c1 [Example 33, 2-(Isoquinolin-7-ylamino)-N-(3-methoxy-5-trifluoromethyl-phenyl)-nicotinamide]	< 1000
CC(C)(C)c1ccc(NC(=O)c2cccnc2Nc2ccc3ncncc3c2)cc1 [Example 56, N-(4-tert-Butyl-phenyl)-2-(quinazolin-6-ylamino)-nicotinamide]	< 1000
CC(C(=O)O)c1ccc(NC(=O)c2cccnc2Nc2ccc3ccncc3c2)cc1 (racemic) [Example 53, 2(R,S)-(4-{[2-(Isoquinolin-7-ylamino)-pyridine-3-carbonyl]-amino}-phenyl)-propionic acid]	< 1000
CC(C)(C)c1ccc(NC(=O)c2cccnc2Nc2cccc3ncccc23)cc1 [Example 72, N-(4-(1,1-dimethylethyl)phenyl)-2-(5-quinolinylamino)-3-pyridinecarboxamide]	< 1000
O=C(Nc1ccc(C(O)(C(F)(F)F)C(F)(F)F)cc1)c1cccnc1Nc1cnc2ccncc2c1 [Example 38, 2-([1,6]Naphthyridin-3-ylamino)-N-[4-(2,2,2-trifluoro-1-hydroxy-1-trifluoromethyl-ethyl)-phenyl]-nicotinamide]	< 1000
Cc1nc2cc(NC(=O)c3cccnc3Nc3ccc4ccncc4c3)ccc2s1 [Example 39, 2-(isoquinolin-7-ylamino)-N-(2-methyl-1,3-benzothiazol-5-yl)nicotinamide]	< 1000
CCOC(=O)C(C)c1ccc(NC(=O)c2cccnc2Nc2ccc3ccncc3c2)cc1 (racemic) [Example 52, 2(R,S)-(4-{[2-(Isoquinolin-7-ylamino)-pyridine-3-carbonyl]-amino}-phenyl)-propionic acid ethyl ester]	< 1000
O=C(Nc1ccc(N2CCC2)nc1)c1cccnc1Nc1ccc2ccncc2c1 [Example 45, N-(6-Azetidin-1-yl-pyridin-3-yl)-2-(isoquinolin-7-ylamino)-nicotinamide]	< 1000
CC(=O)N1Cc2cc(NC(=O)c3cccnc3Nc3ccc4ccncc4c3)ccc2C(C)(C)C1 [Example 13, N-(2-Acetyl-4,4-dimethyl-1,2,3,4-tetrahydro-isoquinolin-7-yl)-2-(isoquinolin-7-ylamino)-nicotinamide]	< 1000
